Test system: NCI-H295R
Assay: IC50 (antiproliferative, ATP content)
Settings: 48 h
Summary of the method: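 Compounds were pin-transferred at 8 final concentrations between 0.6 nM and 46 µM onto adrenocortical carcinoma cells (1500 per well, 1536-well plates) that had been cultured overnight in serum-free DMEM with ITS. Plates then stood 48 h at 37 °C, 5% CO2, and ATP was detected by CellTiter-Glo luminescence. IC50 was derived from logistic fits of normalised signal, and compounds giving no concentration response were noted as above the top dose.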

SMILES	IC50 [µM]
FC(F)(F)C(F)(F)C(F)(F)C(F)(F)C(F)(F)C(F)(F)F	> 46
OC1OC[C@@H](O)[C@H](O)[C@@H]1O (stereo partly drawn)	> 46
N=C(N)NCCN1CCCCCCC1.O=S(=O)(O)O.O=S(=O)(O)O	> 46
CCCC(C)(COC(N)=O)COC(N)=O	> 46
C[N+](C)(C)CC(=O)O.[Cl-]	> 46
CCN(CC)CCCC(C)Nc1ccnc2cc(Cl)ccc12.O=P(O)(O)O.O=P(O)(O)O (stereo not drawn)	> 46
Cl.N[C@H]1C(O)O[C@H](CO)[C@@H](O)[C@@H]1O (stereo partly drawn)	> 46
CCN(CC)CCOC(=O)C(C)(c1ccccc1)c1ccccc1	> 46
CCC(C)(S(=O)(=O)CC)S(=O)(=O)CC	> 46
c1ccc2sc(SSc3nc4ccccc4s3)nc2c1	> 46
CC(Cc1ccccc1)NC=O (stereo not drawn)	> 46
C1CCC(NC2CCCCC2)CC1	> 46
CN1[C@@H]2CC[C@H]1C[C@@H](OC(=O)c1cc(Cl)cc(Cl)c1)C2	> 46
NCCc1cc[nH]n1	> 46
c1ccc2c(c1)sc1ccccc12	> 46
O=[N+]([O-])O[C@@H]1CO[C@H]2[C@@H]1OC[C@@H]2O	> 46
OB(O)O	> 46
O=C1NC(=O)[C@H]2[C@@H]1[C@@H]1C=C[C@H]2C1	> 46
C=C1[C@@H]2CC[C@@H](C2)C1(C)C	> 46
Br.COc1c2c(cc3c1OCO3)CCN(C)C2	> 46
O=NN(CCCl)C(=O)NC1CCCCC1	> 46
CCCCCCCCCCCCCCCCN	> 46

SMILES	IC50 [µM]
CC(N)C12CC3CC(CC(C3)C1)C2.Cl (stereo not drawn)	> 46
O=[C@](O)[C@H](CC1)NC1=O	> 46
C[N+](C)(C)CCCCCC[N+](C)(C)C	> 46
O=c1n(Cl)c(=O)n(Cl)c(=O)n1Cl	> 46
C[C@H]1[C@H]2CC[C@H]3[C@@H]4CC=C5C[C@@H](N(C)C)CC[C@]5(C)[C@H]4CC[C@]23CN1C	> 46
CCC1(CC)C(=O)C=CNC1=O	> 46
CN1CCC(O)(c2ccc(F)cc2)C(C(=O)c2ccc(F)cc2)C1 (stereo not drawn)	> 46
N[C@@H](Cc1ccc(Oc2cc(I)c(O)c(I)c2)c(I)c1)C(=O)O	> 46
CN1c2ccccc2C(NCCCCCCC(=O)[O-])c2ccc(Cl)cc2S1(=O)=O.[Na+] (stereo not drawn)	> 46
OCC(CO)N[C@H]1C[C@](O)(CO)[C@@H](O)[C@H](O)[C@H]1O	> 46
Cc1ccc(-c2nc3ccc(C)cn3c2CC(=O)N(C)C)cc1	> 46
O=c1[nH]c(=O)n(C2CCCO2)cc1F (stereo not drawn)	> 46
C[C@H]1CC[C@]2(NC1)O[C@H]1C[C@H]3[C@@H]4CC[C@H]5C[C@@H](O)CC[C@]5(C)[C@H]4CC[C@]3(C)[C@H]1[C@@H]2C.Cl	> 46
CCN(CC)C(=O)C(Cl)=C(C)OP(=O)(OC)OC	> 46
NC(N)=O	> 46
NCCc1ccc(O)cc1	> 46
Cc1cn([C@H]2C[C@H](F)[C@@H](CO)O2)c(=O)[nH]c1=O	> 46
O[C@@H]([C@H](C)NC)[C@@]1=CC=CC=C1.Cl	> 46
O=C(CC)O[C@@]1([C@@]2=CC=CC=C2)[C@H](C)CN(C)CC1	> 46
O=C1c2ccccc2C(=O)C1c1ccc(F)cc1	> 46
O=P1(NCCCl)OCCCN1CCCl (stereo not drawn)	> 46
O=C(NC(=O)c1c(F)cccc1F)Nc1cc(Cl)c(OC(F)(F)C(F)C(F)(F)F)cc1Cl (stereo not drawn)	> 46

Continued, values first:

IC50 [µM]	SMILES
> 46	OC(C)=O.NC(CNC([C@H](CCCNC(N)=N)N[C@]([C@@H]1CCCN1[C@]([C@H](CSSCCC(N[C@@H](CC4=CC=C(O)C=C4)C3=O)=O)NC([C@H](CC(N)=O)NC([C@@H](NC([C@@H](N3)CC2=CC=CC=C2)=O)CCC(N)=O)=O)=O)=O)=O)=O)=O
> 46	CC(=O)Nc1ccccc1
> 46	Cc1ccc(C(=O)C(C)CN2CCCCC2)cc1.Cl (stereo not drawn)
> 46	CCCc1nc(C(C)(C)O)c(C(=O)OCc2oc(=O)oc2C)n1Cc1ccc(-c2ccccc2-c2nnn[nH]2)cc1
> 46	CCCc1cc(=O)[nH]c(=S)[nH]1
> 46	O=C2N1[C@]([C@@]([H])2NC(C(CC)OC3=CC=CC=C3)=O)([H])SC(C)(C)[C@@H]1[C@@](O)=O (stereo partly drawn)
> 46	O=C1C(C(O)=CC(O)=C2)=C2O[C@H]([C@](C=C5)=CC3=C5O[C@H](CO)[C@@H]([C@]4=CC(OC)=C(O)C=C4)O3)[C@H]1O
> 46	CC(Cc1ccccc1)(NC(=O)CN)c1ccccc1.Cl (stereo not drawn)
> 46	CCOC(=O)Nc1ccc2c(c1)N(C(=O)CCN1CCOCC1)c1ccccc1S2.Cl
> 46	CCC1(c2ccccc2)C(=O)NCNC1=O
> 46	CC[C@H]1OC(=O)C[C@@H](O)[C@H](C)[C@@H](O[C@@H]2O[C@H](C)[C@@H](O)[C@H](N(C)C)[C@H]2O)[C@@H](CCN2C[C@H](C)C[C@H](C)C2)C[C@@H](C)C(=O)/C=C/C(C)=C/[C@@H]1CO[C@@H]1O[C@H](C)[C@@H](O)[C@@H](OC)[C@H]1OC
> 46	C/C(=C(/CCOP(=O)(O)O)SC(=O)c1ccccc1)N(C=O)Cc1cnc(C)nc1N
> 46	COc1ccc2c3c1O[C@H]1C[C@@H](O)C=C[C@@]31CCN(C)C2
> 46	Nc1ccc(S(N)(=O)=O)cc1
> 46	COc1ccc(-c2cc(=O)c3c(O)cc(O[C@@H]4O[C@H](CO[C@@H]5O[C@@H](C)[C@H](O)[C@@H](O)[C@H]5O)[C@@H](O)[C@H](O)[C@H]4O)cc3o2)cc1O
> 46	CC(N)CCCC(C)(C)O.Cl (stereo not drawn)
> 46	COCCOC(=O)C1=C(C)NC(C)=C(C(=O)OC(C)C)C1c1cccc([N+](=O)[O-])c1 (stereo not drawn)
> 46	Cc1cc(NS(=O)(=O)c2ccc(N)cc2)no1
> 46	CCN(CC)CCOC(=O)C(c1ccccc1)c1ccccc1.Cl
> 46	CC(C)NCC1CCc2cc(CO)c([N+](=O)[O-])cc2N1 (stereo not drawn)

IC50 [µM]	SMILES
> 46	N[C@@H](Cc1ccc(O)cc1)C(=O)O
> 46	C1CNCCN1.C[C@H](CCC(=O)O)[C@H]1CC[C@H]2[C@@H]3[C@H](O)C[C@@H]4C[C@H](O)CC[C@]4(C)[C@H]3C[C@H](O)[C@]12C
> 46	CC(=O)Nc1nnc(S(N)(=O)=O)s1
> 46	CCCNC(C)C(=O)Nc1ccccc1C.Cl (stereo not drawn)
> 46	O=C(Oc1ccccc1C(=O)O)c1ccccc1O
> 46	O=C(CS(=O)Cc1ccco1)NC/C=C\COc1cc(CN2CCCCC2)ccn1 (stereo not drawn)
> 46	CN1c2c(O)nc(N)nc2NCC1CNc1ccc(C(=O)NC(CCC(=O)[O-])C(=O)[O-])cc1.[Na+].[Na+] (stereo not drawn)
> 46	COc1ccc(C=CC(=O)OCCC(C)C)cc1
> 46	Cc1ccc(-c2ncc(Cl)cc2-c2ccc(S(C)(=O)=O)cc2)cn1
> 46	COC(=O)[C@@H](N)CS.Cl
> 46	Cc1c(NC(C)C)c(=O)n(-c2ccccc2)n1C
> 46	CCCCNC(=O)NS(=O)(=O)c1ccc(C)cc1
> 46	CC(CNC1CCCCC1)OC(=O)c1ccccc1.Cl (stereo not drawn)
> 46	C/C(=C(\CCOC(=O)C(C)C)SS/C(CCOC(=O)C(C)C)=C(/C)N(C=O)Cc1cnc(C)nc1N)N(C=O)Cc1cnc(C)nc1N
> 46	O=C(OCc1ccccc1)c1ccc(O)cc1
> 46	O=[C@]([C@H]2N(CCC)CCCC2)NC1=C(C)C=CC=C1C.Cl
> 46	COc1ccccc1N1CCN(CCCC(=O)c2ccc(F)cc2)CC1
> 46	COc1ccc(C(=O)NCc2ccc(OCCN(C)C)cc2)cc1OC.Cl
> 46	F[C@@]([C@](C[C@@H]5F)([H])[C@@](C4)([H])[C@@]2(C)[C@@]1([C@](COC(C)=O)=O)[C@]4([H])OC(C)(C)O1)([C@@H](O)C2)[C@](C=C3)(C)C5=CC3=O
> 46	CNC(=C[N+](=O)[O-])NCCSCc1csc(CN(C)C)n1

IC50 [µM]	SMILES
> 46	COc1ccc2[nH]c(S(=O)Cc3ncc(C)c(OC)c3C)nc2n1 (stereo not drawn)
> 46	NC[C@H](O)c1ccc(O)c(O)c1.O=C(O)C(O)C(O)C(=O)O.O=C(O)C(O)C(O)C(=O)O
> 46	CCCC(=O)Nc1ccc(OCC(O)CNC(C)C)c(C(C)=O)c1.Cl (stereo not drawn)
> 46	Cl.O=C(NC1CCN(CCc2c[nH]c3ccccc23)CC1)c1ccccc1
> 46	O=c1oc2cc(O)ccc2s1
> 46	CCN[C@H]1CN(CCCOC)S(=O)(=O)c2sc(S(N)(=O)=O)cc21
> 46	COc1ccc(/C=C/C(=O)Nc2ccccc2C(=O)O)cc1OC
> 46	COc1ccc(CCN(C)CCCN2CCc3cc(OC)c(OC)cc3CC2=O)cc1OC.Cl
> 46	Nc1c2c(nc3ccccc13)CCCC2
> 46	C[C@H](Cn1cnc2c(N)ncnc21)OCP(=O)(O)O
> 46	CCN1CCN(c2cc3c(cc2F)c(=O)c(C(=O)O)cn3C2CC2)CC1
> 46	COC(=O)CC[C@H](N)C(=O)O
> 46	CCCCNc1ccc(C(=O)OCCOCCOCCOCCOCCOCCOCCOCCOCCOC)cc1
> 46	O=c1[nH]c(=O)n([C@H]2C[C@H](O)[C@@H](CO)O2)cc1I
> 46	CC(=O)Nc1ccc(OCC(O)CNC(C)C)cc1 (stereo not drawn)
> 46	NC(CNC([C@H](CC(C)C)N[C@]([C@@H]1CCCN1[C@]([C@H](CSSC[C@H](N)C(N[C@@H](CC3=CC=C(O)C=C3)C2=O)=O)NC([C@H](CC(N)=O)NC([C@@H](NC([C@](N2)([H])[C@@H](C)CC)=O)CCC(N)=O)=O)=O)=O)=O)=O)=O.O=C(C)O
> 46	CCCCCCCCCCCC(=O)OCC(O)CO (stereo not drawn)
> 46	CC1=CC[C@@H](CC1)[C@@](O)(C)CC\C=C(/C)C
> 46	CCCCCCCCCCCCCCCCCC(=O)OCC(O)CO (stereo not drawn)

Source: the supplement of paper PMC3493320
